Assay results taken from patent US10111854B2, “Synthesis and use of amine-containing flavonoids as potent anti-leishmanial agents” (The Hong Kong Polytechnic University, priority 2014, dated 2018).

Columns and labels:
RAW264.7 cells = experiment: Reactive oxygen species (ROS) level, DCFDA, RAW264.7; type: cell-based, murine; settings: for ROS induction in macrophages: RAW264.7
Summary of the method: (§1)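 RAW264.7 macrophages or L. amazonensis promastigotes pre-loaded 1 h with 10 μM DCFDA (37 °C and 27 °C respectively), washed, then exposed to compounds (10 or 30 μM in macrophages; 30 μM in promastigotes). DCF fluorescence (ex 485 nm) read at 2–72 h, background from unstained cells subtracted.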

[1] = Cytotoxicity, L929 fibroblasts; type: cell-based, mouse; settings: mouse
Method: IC50 values of known antileishmanials and the amine-containing flavonoid monomers of the present invention to promastigotes (L. amazonensis LV78, L major FV1, L. donovani HU3, L. donovani 39), macrophages (Raw 264.7 and PEM) and mouse fibroblast (L929) were determined. The anti-promastigotes activities and cytotoxicity of the amine-containing flavonoid monomers of the invention are shown in Table 1.

[2] = system: L. amazonensis LV78 promastigotes; experiment: Reactive oxygen species (ROS) level, DCFDA, promastigotes; type: cell-based; settings: 30 μM
Summary of the method: as §1

[3] = system: L. amazonensis LV78 amastigotes; experiment: Anti-amastigote activity in infected PEM, L. amazonensis LV78; type: cell-based; settings: for Selective index (a)/(b): IC50 RAW264.7 over IC50 L. amazonensis LV78 amastigotes; for IC50: Leishmania amazonensis, 72 h, infected PEM, 3 days, Giemsa
Summary of the method: (§2)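 Macrophages elicited from mouse peritoneum were allowed to adhere overnight, then infected with late-log promastigotes at a 20:1 ratio at 37 °C. After removal of non-internalized parasites, cells were incubated with compound for 3 days. Amastigote burden was scored microscopically after Giemsa staining.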

[4] = system: L. donovani HU3 amastigotes; experiment: Anti-amastigote activity in infected PEM, L. donovani HU3; type: cell-based; settings: for Selective index (a)/(b): IC50 RAW264.7 over IC50 L. donovani HU3 amastigotes; for IC50: Leishmania donovani, 72 h, infected PEM, 3 days, Giemsa, SSG-sensitive
Summary of the method: as §2

[5] = system: L. donovani Ld39 amastigotes (SSG-resistant); experiment: Anti-amastigote activity in infected PEM, L. donovani Ld39; type: cell-based; settings: for Selective index (a)/(c): IC50 RAW264.7 over IC50 L. donovani Ld39 amastigotes; for IC50: Leishmania donovani, 72 h, infected PEM, 3 days, Giemsa, SSG-resistant
Summary of the method: as §2

[6] = system: L. donovani Ld39 promastigotes; experiment: Anti-promastigote activity (MTS assay), L. donovani Ld39; type: cell-based; settings: Leishmania donovani, 72 hours
Summary of the method: (§3)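 Promastigotes (1×10^5 per well) in Schneider's medium pH 6.9 with 10% FBS, exposed to serial compound concentrations for 72 h at 27 °C. Viability by MTS/PMS reduction over 4 h, OD 490 nm; IC50 derived.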

[7] = system: peritoneal elicited macrophages (PEM); experiment: Cytotoxicity, peritoneal elicited macrophages (PEM); type: cell-based, mouse; settings: mouse
[8] = as above; type: cell-based, mouse; settings: mouse, Cytotoxicity IC50, PEM
[9] = system: L. donovani HU3 promastigotes; experiment: Anti-promastigote activity (MTS assay), L. donovani HU3; type: cell-based; settings: Leishmania donovani, 72 hours
Summary of the method: as §3

Row | IC50 [3] | Structure (SMILES) | RAW264.7 ROS Level, Relative fold (RF) (RAW264.7 cells; 10 μM, 2 hr) | RAW264.7 ROS Level, Relative fold (RF) (RAW264.7 cells; 10 μM, 4 hr) | RAW264.7 ROS Level, Relative fold (RF) (RAW264.7 cells; 10 μM, 6 hr) | RAW264.7 ROS Level, Relative fold (RF) (RAW264.7 cells; 10 μM, 8 hr) | RAW264.7 ROS Level, Relative fold (RF) (RAW264.7 cells; 10 μM, 20 hr) | ROS induction in macrophages (RAW264.7 cells; 10 μM) | RAW264.7 ROS Level, Relative fold (RF) (RAW264.7 cells; 30 μM, 2 hr) | RAW264.7 ROS Level, Relative fold (RF) (RAW264.7 cells; 30 μM, 4 hr) | RAW264.7 ROS Level, Relative fold (RF) (RAW264.7 cells; 30 μM, 6 hr) | RAW264.7 ROS Level, Relative fold (RF) (RAW264.7 cells; 30 μM, 20 hr) | RAW264.7 ROS Level, Relative fold (RF) (RAW264.7 cells; 30 μM, 46 hr) | IC50 [1] | L. amazon LV78 promastigote ROS Level, Relative fold (RF) ([2]; 2 hr) | L. amazon LV78 promastigote ROS Level, Relative fold (RF) ([2]; 4 hr) | L. amazon LV78 promastigote ROS Level, Relative fold (RF) ([2]; 6 hr) | L. amazon LV78 promastigote ROS Level, Relative fold (RF) ([2]; 20 hr) | L. amazon LV78 promastigote ROS Level, Relative fold (RF) ([2]; 46 hr) | L. amazon LV78 promastigote ROS Level, Relative fold (RF) ([2]; 72 hr) | Selective index (a)/(b) [3] | also measured
1 | 430 nM | O=c1cc(-c2ccc(OCCOCCN(CCOCCOc3ccc(-c4cc(=O)c5ccccc5o4)cc3)Cc3ccncc3)cc2)oc2ccccc12 [compound 39] | 0.9 fold | 0.9 fold | 0.9 fold | 0.8 fold | 0.9 fold | No ROS induction | 1.3 fold | 1.4 fold | 1.3 fold | 1.3 fold | 1.4 fold | 26.4 µM | 1.3 fold | 1.3 fold | 1.3 fold | 1.6 fold | 1.4 fold | 1.6 fold | 232.6 | Selective index (a)/(b) [4]: >500; IC50 [4]: 200 ± 60 nM; Selective index (a)/(c) [5]: 47.6; IC50 [5]: 210 ± 60 nM; IC50 [6]: 210 ± 60 nM; IC50 [7]: > 88 µM; IC50 [8]: > 100 µM
2 | 300 nM | O=c1cc(-c2ccc(OCCOCCN(Cc3ccccn3)Cc3ccccn3)cc2)oc2ccccc12 [FM09, 2-(4-(2-(2-(bis(pyridin-2-ylmethyl)amino)ethoxy)ethoxy)phenyl)-4H-chromen-4-one] | 1.1 fold | 1.1 fold | 1.0 fold | 1.0 fold | 1.1 fold | No ROS induction | 1.3 fold | 1.4 fold | 1.3 fold | 1.4 fold | 2.1 fold | > 33 µM | 2.0 fold | 2.1 fold | 2.3 fold | 3.2 fold | 4.3 fold | 6.2 fold | 63 | IC50 [9]: 500 ± 200 nM; Selective index (a)/(b) [4]: 47.3; IC50 [4]: 400 nM; Selective index (a)/(c) [5]: >51.1; IC50 [5]: < 370 nM; IC50 [6]: 500 ± 100 nM; IC50 [8]: 22 µM
